Patent US6602825B1, “1-Aryl-1,3,5-triazine-4-thione-2,6-diones, production thereof and use thereof as herbicides” (BASF Aktiengesellschaft, priority 2001, dated 2003)

SMILES	melting point [°C]
Cn1c(=S)n(C)c(=O)n(-c2c(F)cc(Cl)c3ncoc23)c1=O [Compound No. 65, 3-(4-chloro-6-fluorobenzoxazol-7-yl)-1,5-dimethyl-6-thioxo-[1,3,5]triazinane-2,4-dione]	209 to 211
CCc1nc2c(Cl)cc(F)c(-n3c(=O)n(C)c(=S)n(C)c3=O)c2o1 [Compound No. 66, 3-(4-chloro-2-ethyl-6-fluorobenzoxazol-7-yl)-1,5-dimethyl-6-thioxo-[1,3,5]triazinane-2,4-dione]	156 to 159
Cn1c(=S)n(C)c(=O)n(-c2cc(C(=O)O)c(Cl)cc2F)c1=O [Compound No. 28, 2-Chloro-5-(3,5-dimethyl-2,6-dioxo-4-thioxo-[1,3,5]triazinan-1-yl)-4-fluorobenzoic acid]	225 to 229
